Laboratory results taken from patent US20090149495A1, “COMPOUNDS” (priority 2005, published 2009).

How the values were obtained:
[1] = molecular target: mGluR5; assay: MGluR5 receptor binding test ([3H]-M-MPEP displacement); design: species or system rat or human; conditions: radioligand [3H]-M-MPEP 2 nM; table does not say rat cortical membranes or hmGluR5a cells; read-out: mGlu5 Ki
Method: MGluR5 receptor binding was determined according to Gasparini et.al. (Bioorg. Med. Chem. Lett. 2000, 12:407-409) with modifications. Rat cerebro-cortical membrane preparation was used to determine the binding characteristics of reference compounds and novel compounds to the rat mGluR5. The A18 cell line expressing hmGluR5a (purchased from Euroscreen) was used to determine binding characteristics of the chemical compounds to the human mGluR5a receptor. As radioligand [3H]-M-MPEP (2 nM) was used. The nonspecific binding was determined in the presence of 10 μM M-MPEP.

[2] = molecular target: T1, mGluR1 (Rattus norvegicus, UniProt P23385); assay: MGluR1 receptor binding test ([3H]R214127 displacement, rat cerebellar membrane); conditions: rat cerebellar membranes; radioligand [3H]R214127 3 nM; read-out: mGlu1 Ki
T1 construct: rat cerebellar membrane preaparation was used; from tissue; host or cells: rat cerebellum (membrane preparation)
T1 sequence (P23385 19-1199): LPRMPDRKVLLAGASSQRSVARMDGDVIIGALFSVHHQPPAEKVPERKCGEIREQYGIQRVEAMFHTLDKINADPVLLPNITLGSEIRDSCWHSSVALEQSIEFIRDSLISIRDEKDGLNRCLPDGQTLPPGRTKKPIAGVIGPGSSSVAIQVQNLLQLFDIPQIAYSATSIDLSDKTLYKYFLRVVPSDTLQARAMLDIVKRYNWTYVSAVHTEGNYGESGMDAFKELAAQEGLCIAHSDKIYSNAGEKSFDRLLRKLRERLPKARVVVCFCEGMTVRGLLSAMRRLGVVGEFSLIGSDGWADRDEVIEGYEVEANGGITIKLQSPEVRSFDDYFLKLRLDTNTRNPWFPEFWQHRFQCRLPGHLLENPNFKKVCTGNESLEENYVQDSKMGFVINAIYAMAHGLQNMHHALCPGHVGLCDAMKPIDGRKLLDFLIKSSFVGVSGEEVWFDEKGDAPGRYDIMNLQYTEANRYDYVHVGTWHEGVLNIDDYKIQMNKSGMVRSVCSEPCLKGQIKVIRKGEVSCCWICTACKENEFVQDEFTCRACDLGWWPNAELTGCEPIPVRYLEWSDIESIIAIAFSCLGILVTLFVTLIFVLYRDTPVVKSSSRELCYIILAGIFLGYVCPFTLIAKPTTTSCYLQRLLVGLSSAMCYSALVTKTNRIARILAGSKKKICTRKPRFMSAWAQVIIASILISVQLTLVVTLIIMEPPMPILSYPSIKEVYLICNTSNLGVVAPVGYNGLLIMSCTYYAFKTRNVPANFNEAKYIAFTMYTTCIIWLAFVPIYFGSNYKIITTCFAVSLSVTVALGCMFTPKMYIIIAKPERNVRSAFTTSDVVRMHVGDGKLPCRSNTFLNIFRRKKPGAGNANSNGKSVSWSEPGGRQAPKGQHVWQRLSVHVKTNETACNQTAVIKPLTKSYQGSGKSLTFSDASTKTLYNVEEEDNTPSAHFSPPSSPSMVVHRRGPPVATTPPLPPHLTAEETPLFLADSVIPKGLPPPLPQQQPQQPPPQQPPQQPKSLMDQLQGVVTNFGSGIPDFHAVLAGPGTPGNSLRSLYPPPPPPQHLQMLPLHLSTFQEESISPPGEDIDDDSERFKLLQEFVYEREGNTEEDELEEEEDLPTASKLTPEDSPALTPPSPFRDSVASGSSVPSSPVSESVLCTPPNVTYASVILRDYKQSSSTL
Method: MGluR1 receptor binding tests were performed according to modified method of Lavreysen et al. (Mol.Pharm., 2003, 63, 1082). Based on the high homology between the human and rat mGluR1 receptors, rat cerebellar membrane preaparation was used to determine the binding characteristics of reference compounds and novel compounds to the rat mGluR1. As radioligand [3H]R214127 (3 nM) was used and the nonspecific binding was determined in the presence of 1 μM of R214127.
IC-50 values were determined from displacement curves by nonlinear regression analysis and were converted by equation method of Cheng and Prusoff (Biochem. Pharmacol., 1973, 22, 3099) to Ki values.

O=S(=O)(c1ccc(Cl)cc1)c1sc2nc(O)ccc2c1-c1ccc(Cl)cc1 [Compound 1, 2-(4-Chloro-Benzenesulfonyl)-3-(4-Chloro-Phenyl)-7H-Thieno[2,3-b]Pyridin-6-One]
Ki [1]: < 500 nM
Ki [2]: > 500 nM

Cc1cccc(S(=O)(=O)c2sc3[nH]c(=O)ccc3c2-c2ccc(Cl)cc2)c1 [Compound 4, 3-(4-chloro-phenyl)-2-(toluene-3-sulfonyl)-7H-thieno[2,3-b]pyridin-6-one]
Ki [1]: > 500 nM

N#Cc1cccc(S(=O)(=O)c2sc3nc(O)ccc3c2-c2ccc(Cl)cc2)c1 [Compound 2, 3-[3-(4-chloro-phenyl)-6-oxo-6,7-dihydro-thieno[2,3-b]pyridin-2-sulfonyl]-benzonitrile]
Ki [1]: < 500 nM
Ki [2]: < 500 nM

O=C(OCc1ccc(F)cc1)c1sc2[nH]c(=O)ccc2c1-c1ccc(Cl)cc1 [Compound 3, 3-(4-chloro-phenyl)-6-oxo-6,7-dihydro-thieno[2,3-b]pyridine-2-carboxylic acid 4-fluoro-benzyl ester]
Ki [1]: < 500 nM
Ki [2]: < 500 nM
